Laboratory results taken from US11274332B2, “Methods of administering 3,4-diaminopyridine” (SERB SA, priority 2011, dated 2022).

Assays:
[1] = Bioavailability/bioequivalence study of 3,4-DAP phosphate salt vs free base in healthy subjects (Example A); format: in vivo, human
Description: The primary objectives of the study were to evaluate the clinical tolerance of a single 10 mg dose (equivalent base) oral intake of 3,4-DAP salt in five healthy subjects and to determine the relative bioequivalence of a single 20 mg oral dose of 3,4-DAP administered as a salt or as a free base to 26 healthy subjects. The secondary objectives were to study pharmacokinetic parameters (elimination half and elimination constant), to compare the biological tolerance of both a 20 mg oral intake of 3,4-DAP as a free base and as a salt, and to measure QTcf intervals at expected Cmax.
This was an open and uncontrolled study of the clinical tolerance to a low dose of the phosphate salt. Subjects were hospitalized from 8 am to 4 pm after fasting since midnight the previous night. At 8:30 am, one 10 mg 3,4-DAP phosphate tablet was administered with a glass of water in the presence of a supervising nurse. During their 8-hour stay, heart rate was continuously monitored, blood pressure was measured on eight occasions (including baseline) and three urine samples were taken.
This was a double-blind, randomized 2-way cross-over trial. The two administration periods were separated by a wash-out of at least 3 days and not more than 10 days. At the beginning of each period, subjects were hospitalized at 8 am (while fasting since midnight) for at least 12 hours. At their arrival a urinary sample was taken and avenous catheter was inserted into an antecubital vein. A first blood sample was drawn 15 min before drug intake. At around 8:30 am drug was administered (as the phosphate salt or free base according to randomization) with a glass of water under the supervision of a nurse and subjects remained seated for 15 min. Group A received two 10 mg tablets of 3,4-DAP phosphate. Group B received two 10 mg capsules of 3,4-DAP as a free base.
Two 5 mL blood samples were drawn at the following times after drug administration: 5 min, 10 min, 15 min, 20 min, 30 min, 45 min, 60 min, 75 min, 90 min, 120 min, 240 min, 360 min, 480 min, and 660 min. At each sampling time two 5 mL samples were drawn on […] heparinized tubes. They were immediately centrifuged at room temperature. Serum was then separated and dispatched into three clearly identified aliquots which were frozen at −20° C. […]
12-lead ECGs (50 mm/s, 2 cm/mV) were recorded over 1 minute three times prior to drug intake (HR-RR, QT and QTcf were averaged to determine baseline values) and then at 15, 20, 30, 45, 60, 75, 90, 120, and 240 min post dose. ECG parameters were recorded by using Cardionics™ ECG/VCG software (version 3.3.0). Blood pressure was measured at 120 min post dosing. […]
An HPLC-electrochemical detection system was used to assay 3,4-DAP in serum samples. […] The extracted sample was analyzed by HPLC coupled with coulemetric detection. […]

[2] = Rat PK study, IV and oral TID amifampridine phosphate (Example 4); format: in vivo; conditions: rat plasma
Description: The objective of this study was to determine the absolute bioavailability of amifampridine phosphate and the pharmacokinetics of amifampridine and its 3-N-acetyl metabolite upon single-dose IV and single-day oral dose (TID) administration.
Amifampridine phosphate was administered by IV bolus at 0.8 mg/kg (in saline) to 6 rats/sex and by oral gavage (in water) TID (approximately 6 hours apart) at dose levels of 2, 8, and 25 mg/kg/dose (equivalent to 6, 24, and 75 mg/kg/day) to 12 rats/sex/group, with oral Dose 1 given to fasted rats and Dose 2 and 3 with food ad libitum. For IV bolus dose and oral Dose 1 (dose administration No. 1), blood samples were collected from three animals/sex/timepoint at predose and 0.083 (IV only), 0.17, 0.25, 0.33, 0.5, 0.75, 1, 1.25 (IV only), 1.5, 2, 2.5, 3, and 6 hours post-dose; 0.17, 0.5, and 6 hours following the second oral dose (dose administration No. 2); and 0.17, 0.25, 0.33, 0.5, 0.75, 1, 1.5, 2, 3, 4, 6, 8, and 10 hours following the third oral dose (dose administration No. 3). The second and third oral doses were given at 6 and 12 hours, respectively, after the first dose. LC-MS/MS was used to quantify amifampridine, 3-N-acetyl and 4-N-acetyl amifampridine metabolites in rat plasma samples. […] Noncompartmental analysis was applied to the mean plasma amifampridine and 3-N-acetyl metabolite concentration data for male and female rats. […]

SMILES | differences in Cmax, AUC and t1/2 between subjects ([1]; between patients) | Cmax ([1]; human, serum, as the phosphate salt, 20 mg oral, read-out: Cmax, range between patients) [ng/mL] | half-life ([1]; human, serum, phosphate salt or free base, 20 mg oral) [h] | coefficient of variations for AUCs and Cmax ([1]; phosphate salt or free base, 20 mg oral) | abundance of major circulating metabolite relative to 3,4-DAP [2]
Nc1ccncc1N [3,4-DAP, 3,4-diaminopyridine] | up to 10 fold | 13 to 167 | < 2.6 | exceeding 30% | –
CC(=O)Nc1cnccc1N [3-N-acetyl amifampridine, N-(4-aminopyridin-3-yl)acetamide] | – | – | – | – | more abundant than 3,4-DAP
